In ChEMBL document CHEMBL5223080, “Discovery of Pyrrole-imidazole Polyamides as PD-L1 Expression Inhibitors and Their Anticancer Activity via Immune and Nonimmune Pathways” (J Med Chem, 2021):
Calls of active or inactive are those of the source. No cut-off for these calls is given here.

Experiments:
[1] = Induction of T-cell mediated cytotoxicity against human HCC827 cells co-cultured with Jurkat cells assessed as apoptotic cells at 8 uM incubated for 36 hrs by standard CCK-8 assay relative to control; format: functional
[2] = Induction of T-cell mediated cytotoxicity against human MDA-MB-231 cells co-cultured with Jurkat cells assessed as apoptotic cells at 8 uM incubated for 36 hrs by standard CCK-8 assay relative to control; format: functional
[3] = system: HCC827; experiment: Cytotoxicity against human HCC827 cells incubated for 36 hrs by standard CCK-8 assay; format: functional, cell-based; details: for IC50: HCC827, 36 h
[4] = system: MDA-MB-231; experiment: Cytotoxicity against human MDA-MB-231 cells incubated for 36 hrs by standard CCK-8 assay; format: functional, cell-based; details: for IC50: MDA-MB-231, 36 h
[5] = system: dsDNA; experiment: Binding affinity to human wild-type double stranded DNA assessed as thermal stability of compound-DNA complex by measuring change in melting temperature at stoichiometry ratio 1:0.5 by UV melting assay; format: nucleic-acid assay
[6] = system: dsDNA; experiment: Binding affinity to human wild-type double stranded DNA assessed as thermal stability of compound-DNA complex by measuring change in melting temperature at stoichiometry ratio 1:1 by UV melting assay; format: nucleic-acid assay
[7] = system: dsDNA; experiment: Binding affinity to human wild-type double stranded DNA assessed as thermal stability of compound-DNA complex by measuring change in melting temperature at stoichiometry ratio 1:4 by UV melting assay; format: nucleic-acid assay
[8] = system: dsDNA; experiment: Binding affinity to human mutant double stranded DNA assessed as thermal stability of compound-DNA complex by measuring melting temperature change in at stoichiometry ratio 1:0.5 by UV melting assay; format: nucleic-acid assay
[9] = system: dsDNA; experiment: Binding affinity to human mutant double stranded DNA assessed as thermal stability of compound-DNA complex by measuring change in melting temperature at stoichiometry ratio 1:1 by UV melting assay; format: nucleic-acid assay
[10] = system: dsDNA; experiment: Binding affinity to human mutant double stranded DNA assessed as thermal stability of compound-DNA complex by measuring melting change in temperature at stoichiometry ratio 1:4 by UV melting assay; format: nucleic-acid assay
[11] = system: dsDNA; experiment: Binding affinity to human 5'-biotin-double stranded DNA assessed as association rate constant by surface plasmon resonance; format: nucleic-acid assay
[12] = target: dsDNA; experiment: Binding affinity to human 5'-biotin-double stranded DNA assessed as dissociation rate constant by surface plasmon resonance; format: nucleic-acid assay
[13] = target: dsDNA; experiment: Binding affinity to human 5'-biotin-double stranded DNA assessed as dissociation equilibrium constant by surface plasmon resonance; format: nucleic-acid assay
[14] = system: DNA; experiment: Binding affinity to wild-type double stranded DNA (unknown origin) by assessed as decrease in compound-DNA complex at >=8 uM by competitive electrophoretic mobility shift assay; format: nucleic-acid assay
[15] = Binding affinity to human single stranded DNA (unknown origin) by electrophoretic mobility shift assay
[16] = Binding affinity to DNA STAT3 binding site of PD-L1 promoter region (unknown origin) assessed as disappearance of band of wild-type double stranded DNA-STAT3 protein complex at > 8 uM by competitive electrophoretic mobility shift assay
[17] = organism: Homo sapiens; experiment: Binding affinity to 5'-biotin-double stranded DNA (unknown origin) assessed as saturation of the compound-DNA complex at 350 to 500 nM by surface plasmon resonance; details: dose 350-500 nM
[18] = system: HCC827; experiment: Inhibition of PD-L1 mRNA expression in IFNgamma-induced human HCC827 cells measured for 36 hrs by qRT-PCR analysis; format: functional, cell-based; details: dose 1.25-10 µM
[19] = system: MDA-MB-231; experiment: Inhibition of PD-L1 mRNA expression in IFNgamma-induced human MDA-MB-231 cells measured for 36 hrs by qRT-PCR analysis; format: functional, cell-based; details: dose 1.25-10 µM
[20] = system: HCC827; experiment: Inhibition of PD-L1 protein expression in IFNgamma-induced human HCC827 cells measured for 36 hrs by Western blot analysis; format: functional, cell-based; details: dose 1.25-10 µM
[21] = system: MDA-MB-231; experiment: Inhibition of PD-L1 protein expression in IFNgamma-induced human MDA-MB-231 cells measured for 36 hrs by Western blot analysis; format: functional, cell-based; details: dose 1.25-10 µM
[22] = Induction of T-cell mediated cell killing in human HCC827 cells co-cultured with PMA-activated Jurkat T cells assessed as IL-2 production at 8 uM by ELISA relative to control; format: functional
[23] = Induction of T-cell mediated cell killing in human MDA-MB-231 cells co-cultured with PMA-activated Jurkat T cells assessed as IL-2 production at 8 uM by ELISA relative to control; format: functional
[24] = system: Jurkat; experiment: Cytotoxicity against human Jurkat cells at 8 uM incubated for 36 hrs by standard CCK-8 assay; format: toxicity, cell-based
[25] = system: MRC5; experiment: Cytotoxicity against human MRC5 cells at 32 uM by standard CCK-8 assay; format: toxicity, cell-based; details: mrc5, 32 µM
[26] = system: HCC827; experiment: Induction of apoptosis in human HCC827 cells co-cultured with human Jurkat T cells at 8 uM relative to control; format: functional
[27] = system: MDA-MB-231; experiment: Induction of apoptosis in human MDA-MB-231 cells co-cultured with human Jurkat T cells at 8 uM relative to control; format: functional
[28] = system: HCC827; experiment: Antimigratory activity in human HCC827 cells assessed as inhibition rate at 0.5 to 1 uM measured after 48 hrs by Wound healing assay relative to control; format: functional; parameters: scale not given: the % may be the effect or the level left; details: dose 0.5-1 µM
[29] = system: MDA-MB-231; experiment: Antimigratory activity in human MDA-MB-231 cells assessed as inhibition rate at 0.5 to 1 uM measured after 48 hrs by Wound healing assay relative to control; format: functional; parameters: scale not given: the % may be the effect or the level left; details: dose 0.5-1 µM
[30] = system: HCC827; experiment: Antimigratory activity in human HCC827 cells assessed as inhibition rate at 2 uM measured after 48 hrs by Wound healing assay relative to control; format: functional; parameters: scale not given: the % may be the effect or the level left
[31] = system: MDA-MB-231; experiment: Antimigratory activity in human MDA-MB-231 cells assessed as inhibition rate at 2 uM measured after 48 hrs by Wound healing assay relative to control; format: functional; parameters: scale not given: the % may be the effect or the level left
[32] = system: HCC827; experiment: Induction of apoptosis in human HCC827 cells assessed as inhibition of pro-caspase 3 at 10 uM by Western blot analysis; format: functional, cell-based
[33] = system: MDA-MB-231; experiment: Induction of apoptosis in human MDA-MB-231 cells assessed as inhibition of pro-caspase 3 at 10 uM by Western blot analysis; format: functional, cell-based
[34] = system: MDA-MB-231; experiment: Antitumour activity against human MDA-MB-231 cells assessed as measuring interleukin-2 levels by ELISA; format: functional
[35] = system: HCC827; experiment: Antitumour activity against human HCC827 cells assessed as measuring interleukin-2 levels by ELISA; format: functional
[36] = system: DNA; experiment: Binding affinity to wild type double stranded DNA (unknown origin) incubated for 24 hrs by Circular Dichroism assay; format: nucleic-acid assay
[37] = system: DNA; experiment: Binding affinity to wild type double stranded DNA (unknown origin) at 1:1 compound to DNA ratio incubated for 24 hrs at 340 nm by Circular Dichroism assay; format: nucleic-acid assay
[38] = system: DNA; experiment: Binding affinity to wild type 28 nucleotide double stranded DNA (unknown origin) in PD-L1 gene promotor region at 1:1 compound to DNA ratio incubated for 24 hrs by Circular Dichroism assay; format: nucleic-acid assay
[39] = system: HCC827; experiment: Induction of apoptosis in human HCC827 cells assessed as inhibition of Akt phosphorylation at 10 uM by Western blot analysis; format: functional, cell-based
[40] = system: MDA-MB-231; experiment: Induction of apoptosis in human MDA-MB-231 cells assessed as inhibition of Akt phosphorylation at 10 uM by Western blot analysis; format: functional, cell-based

## COc1nc(OCc2cccc(-c3ccccc3)c2C)ccc1CNCCNC(C)=O
[1]
  Activity: 70.87%
[2]
  Activity: 87.58%
[3]
  IC50: 8.41 µM
[4]
  IC50: 7.92 µM

## CC(=O)Nc1cc(C(=O)Nc2cc(C(=O)Nc3cc(C(=O)Nc4cn(C)c(C(=O)Nc5cn(C)c(C(=O)NCCC(=O)Nc6cn(C)c(C(=O)NCCCC(=O)Nc7cc(C(=O)Nc8cc(C(=O)Nc9cc(C(=O)NCCC(=O)Nc%10cc(C(=O)Nc%11cn(C)c(C(=O)Nc%12cc(C(=O)NCCC(=O)NCCCN(C)C)n(C)c%12)n%11)n(C)c%10)n(C)c9)n(C)c8)n(C)c7)n6)n5)n4)n(C)c3)n(C)c2)n(C)c1.Cl
[5]
  ΔTm: 2.9 °C
[6]
  ΔTm: 7 °C
[7]
  ΔTm: 7.3 °C
[8]
  ΔTm: 0.1 °C
[9]
  ΔTm: 0.2 °C
[10]
  ΔTm: 0.4 °C
[11]
  Ka: 6.47 10^6/M/s
[12]
  Kd: 32.3 10^-2/s
[13]
  Kd: 0.0499 µM
[14]
  Activity: Active
[15]
  Activity: inactive
[16]
  Activity: Active
[17]
  Activity: Active
[18]
  inhibition: Dose-Dependent Effect
[19]
  inhibition: Dose-Dependent Effect
[20]
  inhibition: Dose-Dependent Effect
[21]
  inhibition: Dose-Dependent Effect
[22]
  Activity: 57%
[23]
  Activity: 60.35%
[1]
  Activity: 70%
[2]
  Activity: 82.11%
[24]
  Activity: Non-Toxic
[3]
  IC50: 11.8 µM
[3]; dose 2-32 µM
  Activity: Dose-Dependent Effect
[4]
  IC50: 9.05 µM
[4]; dose 2-32 µM
  Activity: Dose-Dependent Effect
[25]
  Activity: Non-Toxic
[26]
  Activity: 269.14%
[27]
  Activity: 30.84%
[28]
  Activity: 50%
[29]
  Activity: 50%
[30]
  Activity: >70%
[31]
  Activity: 86.33%
[32]
  inhibition: Active
[33]
  inhibition: Active
[34]
  Activity: 87.89 pg/mL
[35]
  Activity: 51.17 pg/mL
[36]
  Activity: Active
[37]
  Activity: Active
[38]
  Activity: Active
[39]
  Activity: Active
[40]
  Activity: Active
